Results published in ChEMBL document CHEMBL1201862, “PubChem BioAssay data set” (2004).
The source made the active and inactive calls.

Legend:
[1] = inhibitors of intracellular T. cruzi replication, confirmation, NIH3T3 host cells, beta-gal luminescence (AID 2044); format: functional, cell-based;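 note: intracellular parasites grown in NIH/3T3 mouse fibroblasts as host cells; luminescent beta-galactosidase reporter signal from transgenic T. cruzi replicating inside host cells; inhibitors lower the luminescence signal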
Hexokinase-1 = biological target: T1, Hexokinase-1 (Homo sapiens, UniProt P19367); test: SAR analysis of small molecule inhibitors of hexokinase domain containing I (HKDC1) in the hexokinase 1 selectivity assay. [Related pubchem assays (depositor defined):AID493160, AID493190]; format: functional
T1 sequence (P19367 whole entry): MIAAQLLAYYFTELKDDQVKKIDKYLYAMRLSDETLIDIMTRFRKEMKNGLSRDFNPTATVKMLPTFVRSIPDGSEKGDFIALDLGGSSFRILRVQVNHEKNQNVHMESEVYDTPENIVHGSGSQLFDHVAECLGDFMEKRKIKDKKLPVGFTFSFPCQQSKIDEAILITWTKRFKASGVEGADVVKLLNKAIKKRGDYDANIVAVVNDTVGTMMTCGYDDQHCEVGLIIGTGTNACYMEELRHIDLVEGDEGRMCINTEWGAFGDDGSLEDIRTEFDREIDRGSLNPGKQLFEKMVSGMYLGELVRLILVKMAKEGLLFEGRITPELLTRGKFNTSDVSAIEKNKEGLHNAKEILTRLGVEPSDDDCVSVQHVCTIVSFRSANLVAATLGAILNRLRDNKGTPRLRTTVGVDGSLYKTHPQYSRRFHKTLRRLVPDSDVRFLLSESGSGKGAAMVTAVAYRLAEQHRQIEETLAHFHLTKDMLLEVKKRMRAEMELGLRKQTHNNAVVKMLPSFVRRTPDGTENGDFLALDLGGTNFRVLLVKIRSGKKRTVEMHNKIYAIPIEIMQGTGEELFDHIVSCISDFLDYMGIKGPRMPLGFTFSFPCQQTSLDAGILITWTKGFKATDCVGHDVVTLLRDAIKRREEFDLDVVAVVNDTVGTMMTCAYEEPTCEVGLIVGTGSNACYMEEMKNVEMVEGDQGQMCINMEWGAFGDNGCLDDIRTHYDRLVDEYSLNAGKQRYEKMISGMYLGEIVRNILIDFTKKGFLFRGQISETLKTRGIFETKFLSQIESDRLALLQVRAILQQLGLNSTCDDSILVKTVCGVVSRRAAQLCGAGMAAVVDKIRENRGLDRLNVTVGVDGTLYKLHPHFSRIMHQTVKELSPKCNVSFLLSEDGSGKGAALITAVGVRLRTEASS

[2] = biological target: Cystic fibrosis transmembrane conductance regulator/Golgi-associated PDZ and coiled-coil motif-containing protein (Homo sapiens, UniProt P13569+Q9HD26); test: CAL PDZ peptide-binding inhibitors, dose response, biochemical, fluorescence polarization, Cerulean-tagged CAL PDZ, cherry-picks (AID 504773)
Cystic fibrosis transmembrane conductance regulator/Golgi-associated PDZ and coiled-coil motif-containing protein, sequence (P13569 whole entry, other chains not shown): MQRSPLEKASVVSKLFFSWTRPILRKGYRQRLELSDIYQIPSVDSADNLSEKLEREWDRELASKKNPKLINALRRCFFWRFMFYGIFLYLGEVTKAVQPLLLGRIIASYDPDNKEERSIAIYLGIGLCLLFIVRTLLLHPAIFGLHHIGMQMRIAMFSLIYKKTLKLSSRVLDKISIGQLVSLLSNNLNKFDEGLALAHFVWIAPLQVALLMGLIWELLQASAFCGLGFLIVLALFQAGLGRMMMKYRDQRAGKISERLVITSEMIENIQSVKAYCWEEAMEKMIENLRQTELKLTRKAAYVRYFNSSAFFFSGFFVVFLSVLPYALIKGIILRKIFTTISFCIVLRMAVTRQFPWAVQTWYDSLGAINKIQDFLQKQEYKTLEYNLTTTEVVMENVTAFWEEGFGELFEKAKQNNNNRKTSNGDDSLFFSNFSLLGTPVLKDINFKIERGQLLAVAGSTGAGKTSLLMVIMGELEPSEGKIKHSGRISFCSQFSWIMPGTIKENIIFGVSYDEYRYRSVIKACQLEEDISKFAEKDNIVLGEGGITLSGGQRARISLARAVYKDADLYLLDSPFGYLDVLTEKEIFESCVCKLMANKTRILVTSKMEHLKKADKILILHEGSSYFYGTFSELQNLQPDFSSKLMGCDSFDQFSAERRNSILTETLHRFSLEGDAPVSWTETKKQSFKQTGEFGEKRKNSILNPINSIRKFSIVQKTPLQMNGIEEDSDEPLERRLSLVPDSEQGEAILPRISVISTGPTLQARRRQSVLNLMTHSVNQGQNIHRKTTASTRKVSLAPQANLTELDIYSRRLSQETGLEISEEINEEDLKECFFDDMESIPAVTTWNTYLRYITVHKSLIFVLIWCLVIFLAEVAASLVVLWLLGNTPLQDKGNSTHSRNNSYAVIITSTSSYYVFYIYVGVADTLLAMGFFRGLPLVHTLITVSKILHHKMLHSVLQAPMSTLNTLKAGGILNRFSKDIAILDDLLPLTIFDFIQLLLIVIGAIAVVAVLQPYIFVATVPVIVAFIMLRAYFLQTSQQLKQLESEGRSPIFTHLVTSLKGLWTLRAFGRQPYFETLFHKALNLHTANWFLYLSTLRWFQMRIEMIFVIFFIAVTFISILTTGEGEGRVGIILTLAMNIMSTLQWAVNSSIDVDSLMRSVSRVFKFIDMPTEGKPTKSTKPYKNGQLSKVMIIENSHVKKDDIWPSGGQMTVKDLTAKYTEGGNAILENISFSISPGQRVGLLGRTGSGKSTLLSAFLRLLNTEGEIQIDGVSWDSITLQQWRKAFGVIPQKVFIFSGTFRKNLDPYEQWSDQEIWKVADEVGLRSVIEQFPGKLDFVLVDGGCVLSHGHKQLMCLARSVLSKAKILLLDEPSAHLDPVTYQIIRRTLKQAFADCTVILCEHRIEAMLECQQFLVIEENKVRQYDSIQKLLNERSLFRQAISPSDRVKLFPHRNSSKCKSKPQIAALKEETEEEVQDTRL

[3] = biological target: T2, Heat shock factor protein 1 (Mus musculus, UniProt P38532); test: inhibition of MG132-induced HSE-luciferase signal, confirmation, cell-based, NIH3T3, luminescence, dose retest (AID 2382); format: functional;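 note: NIH3T3 fibroblasts with HSF1-driven luciferase reporter stressed by proteasome inhibitor MG132; luminescence from HSF1-driven luciferase expression after 8 hours of MG132 stress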
T2 sequence (P38532 whole entry): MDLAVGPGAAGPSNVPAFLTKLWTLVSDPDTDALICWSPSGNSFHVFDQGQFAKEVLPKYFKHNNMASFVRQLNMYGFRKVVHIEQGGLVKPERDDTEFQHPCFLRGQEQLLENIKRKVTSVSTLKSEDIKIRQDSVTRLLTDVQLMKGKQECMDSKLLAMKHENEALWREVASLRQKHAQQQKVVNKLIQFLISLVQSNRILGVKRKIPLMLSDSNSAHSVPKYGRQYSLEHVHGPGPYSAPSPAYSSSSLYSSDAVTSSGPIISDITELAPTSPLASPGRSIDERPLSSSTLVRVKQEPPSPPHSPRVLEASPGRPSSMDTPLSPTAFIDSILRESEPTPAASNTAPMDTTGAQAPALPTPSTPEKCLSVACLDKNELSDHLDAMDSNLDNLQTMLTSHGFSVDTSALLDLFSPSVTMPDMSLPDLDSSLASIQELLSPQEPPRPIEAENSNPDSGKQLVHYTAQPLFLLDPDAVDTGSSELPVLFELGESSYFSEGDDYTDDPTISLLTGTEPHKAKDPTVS

[4] = biological target: T3, Apoptotic protease-activating factor 1 (Homo sapiens, UniProt O14727); format: functional
T3 sequence (O14727 whole entry): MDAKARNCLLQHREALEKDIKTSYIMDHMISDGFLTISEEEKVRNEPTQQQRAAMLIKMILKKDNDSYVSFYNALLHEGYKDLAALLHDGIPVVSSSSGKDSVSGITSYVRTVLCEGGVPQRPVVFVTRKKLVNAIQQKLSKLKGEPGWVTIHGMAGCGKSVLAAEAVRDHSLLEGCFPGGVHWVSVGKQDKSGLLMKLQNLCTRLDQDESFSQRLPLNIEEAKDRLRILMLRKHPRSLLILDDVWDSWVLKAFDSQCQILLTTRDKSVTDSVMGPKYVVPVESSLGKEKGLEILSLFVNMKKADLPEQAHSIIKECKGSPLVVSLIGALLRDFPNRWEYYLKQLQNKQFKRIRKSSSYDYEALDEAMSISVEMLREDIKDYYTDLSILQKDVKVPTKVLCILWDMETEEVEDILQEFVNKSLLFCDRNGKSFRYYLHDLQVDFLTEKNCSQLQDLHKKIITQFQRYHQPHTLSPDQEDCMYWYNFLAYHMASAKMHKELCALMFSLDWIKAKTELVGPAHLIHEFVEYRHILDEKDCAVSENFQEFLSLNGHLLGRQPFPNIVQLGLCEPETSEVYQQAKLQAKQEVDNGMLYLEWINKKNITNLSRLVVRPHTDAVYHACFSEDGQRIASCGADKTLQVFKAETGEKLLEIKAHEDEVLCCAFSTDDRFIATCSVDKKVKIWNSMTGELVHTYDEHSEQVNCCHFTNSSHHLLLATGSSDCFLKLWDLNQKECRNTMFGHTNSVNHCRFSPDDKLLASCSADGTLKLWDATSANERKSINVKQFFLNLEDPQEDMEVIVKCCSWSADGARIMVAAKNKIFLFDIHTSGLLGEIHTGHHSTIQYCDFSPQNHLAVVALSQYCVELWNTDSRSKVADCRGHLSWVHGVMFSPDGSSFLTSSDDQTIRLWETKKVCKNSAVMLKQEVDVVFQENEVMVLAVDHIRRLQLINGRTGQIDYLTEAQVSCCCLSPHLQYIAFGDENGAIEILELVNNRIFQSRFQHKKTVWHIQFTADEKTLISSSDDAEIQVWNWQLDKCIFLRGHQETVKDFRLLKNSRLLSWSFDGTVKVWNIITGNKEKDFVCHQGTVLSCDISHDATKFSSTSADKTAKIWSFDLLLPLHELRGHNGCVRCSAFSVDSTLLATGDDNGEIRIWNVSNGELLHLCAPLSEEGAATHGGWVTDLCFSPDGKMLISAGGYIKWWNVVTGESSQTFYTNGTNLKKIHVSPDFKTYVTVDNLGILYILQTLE

INS1 = test: beta cell apoptosis inhibitors, cytokine rescue, dose response, luminescence, retest (AID 449756); format: functional, cell-based; settings: Rattus norvegicus;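 note: cell death triggered by IL-1 beta plus TNF-alpha plus IFN-gamma mixture; protective hits raise ATP signal compared with cytokine alone wells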
Beta-galactosidase = Beta-galactosidase (Escherichia coli, UniProt Q8VNN2); test: beta-galactosidase enzyme inhibitors and activators, dose response, artefact control for CCR6 antagonist project, biochemical, E. coli enzyme, set 3 (AID 504712); format: functional
Beta-galactosidase, sequence (Q8VNN2 whole entry): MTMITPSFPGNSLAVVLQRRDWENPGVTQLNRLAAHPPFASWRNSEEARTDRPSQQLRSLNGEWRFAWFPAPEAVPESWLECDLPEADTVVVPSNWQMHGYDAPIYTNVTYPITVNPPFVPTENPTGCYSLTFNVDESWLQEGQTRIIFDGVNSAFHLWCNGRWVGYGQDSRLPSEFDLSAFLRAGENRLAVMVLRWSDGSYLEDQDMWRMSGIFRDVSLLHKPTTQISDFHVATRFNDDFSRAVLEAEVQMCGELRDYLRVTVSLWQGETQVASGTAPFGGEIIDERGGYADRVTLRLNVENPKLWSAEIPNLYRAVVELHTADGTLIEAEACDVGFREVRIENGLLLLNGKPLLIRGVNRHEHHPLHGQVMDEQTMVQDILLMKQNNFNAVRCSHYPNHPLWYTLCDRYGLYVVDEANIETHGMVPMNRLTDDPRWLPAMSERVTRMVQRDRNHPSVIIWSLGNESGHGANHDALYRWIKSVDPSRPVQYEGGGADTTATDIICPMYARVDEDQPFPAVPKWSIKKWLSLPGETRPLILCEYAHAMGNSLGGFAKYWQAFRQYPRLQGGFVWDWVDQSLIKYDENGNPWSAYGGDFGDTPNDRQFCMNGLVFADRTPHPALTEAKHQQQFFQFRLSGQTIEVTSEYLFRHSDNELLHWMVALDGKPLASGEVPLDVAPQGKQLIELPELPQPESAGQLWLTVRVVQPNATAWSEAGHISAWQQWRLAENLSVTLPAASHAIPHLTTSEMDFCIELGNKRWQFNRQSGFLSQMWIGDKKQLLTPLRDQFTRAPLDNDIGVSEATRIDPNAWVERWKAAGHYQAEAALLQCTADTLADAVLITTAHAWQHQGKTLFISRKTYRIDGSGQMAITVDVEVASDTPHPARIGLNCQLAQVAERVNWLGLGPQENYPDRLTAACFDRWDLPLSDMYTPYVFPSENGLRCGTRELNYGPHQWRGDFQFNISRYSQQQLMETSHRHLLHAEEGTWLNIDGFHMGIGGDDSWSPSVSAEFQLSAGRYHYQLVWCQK

**Q.** With `NC(=O)C1CCN(C2=C(Cl)C(=O)c3ccccc3C2=O)CC1` as the compound, how does the EC50 [1] read?
**A.** 2.18 µM (active)

**Q.** Which results are given for `O=c1c2ccccc2nc(/C=C/c2cccnc2)n1Cc1ccccc1`?
**A.** IC50 (Hexokinase-1): > 80 µM (inactive); AC50 [2]: 23.5 µM (active)

**Q.** For `O=C(O)c1ccc(N/N=C/c2ccc(OC(=O)c3ccccc3Cl)cc2)cc1`, which EC50 [3] is on record?
**A.** 0.167 µM (active)

**Q.** What does the source list for `COC(=O)c1ccccc1NC1=C/C(=N\S(=O)(=O)c2ccc(C(=O)O)cc2)c2ccccc2C1=O`?
**A.** IC50 [4]: 7.19 µM (active); AC50 (INS1): 3.34 µM (active); IC50 (Beta-galactosidase): > 66.6 µM (inactive)
